The values below come from patent US20260207637A1, “MODULATOR FOR PROMOTING BINDING OF BUTYROPHILIN 3A1/2A1” (priority 2023, published 2026).

Structures are written as SMILES. Where two headings read alike, the source gives them in different places.

Data set [1] relates to Huh7/FG2 cells. Briefly: EC50 assay of small molecule activated γδ T cells to kill Huh7/FG2 tumor cells. Type of data set: cell-based. The conditions noted are these: γδT cells + Huh7/FG2, E:T=5:1, co-culture 20 hours, 0.05-100 nM, read-out: Huh7 killing (EC50). The method, then:
(§1) γδT cells and Huh7/FG2 tumor cell lines were expanded and cultured in vitro. The Huh7/FG2 cells were digested, and the cells were counted and resuspended in DMEM complete medium, the density of the cell suspension was adjusted and added into a 96-well plate at 5×10^3 cells/100 μL/well for overnight incubation. On the next day, the test compound and the control compound were diluted at a 3-fold ratio with DMSO, and 4 μL of the diluted compound was added to 96 μL of culture medium for 25-fold dilution. 5 μL of 25-fold diluted compound was transferred to the corresponding well which had been plated with tumor cells, and the actual detection concentration was in the range of 0.05-100 nM. γδT cells were resuspended in γδT complete medium, and the density of the cell suspension was adjusted according to the effector-target ratio of E:T=5:1, and then the cell was added to the corresponding well at 2.5×10^4 cells/100 μL/well. After co-culture at 37° C., 5% CO2 for 20 hours, the cells were centrifuged. […] After standing for 18 minutes in the dark, the signal of chemiluminescence was detected. The EC50 value was calculated by four-parameter fitting, with the corresponding signal value of the well with only tumor cells as the minimum killing value, and the corresponding value of the well without tumor cells as the maximum killing value.

For data set [2], the system named is SKOV3/ELP cells. Briefly: EC50 assay of small molecule activated γδ T cells to kill SKOV3/ELP tumor cells. Type of data set: cell-based. The settings on record: γδT cells + SKOV3/ELP, E:T=2:1, co-culture 20 hours, 0.05-100 nM, read-out: SKOV3 killing (EC50). How it is done: as §1, with “cells and SKOV3/ELP tumor cell” for “cells and Huh7/FG2 tumor cell”, “vitro. The SKOV3/ELP cells were” for “vitro. The Huh7/FG2 cells were”, “resuspended in MC5A complete medium,” for “resuspended in DMEM complete medium,”, “5×10^3 cells/100 […]/well for overnight” for “5×10^3 cells/100 μL/well for overnight”, “ratio of E:T=2:1, and then” for “ratio of E:T=5:1, and then”, “well at 1×10^4 cells/100 μL/well.” for “well at 2.5×10^4 cells/100 μL/well.”

Data set [3] in a line: Stability experiment of compounds in human whole blood. In kind it is in vitro ADME. The settings on record: 37° C., 0-4 h. How it is done: • (1) An appropriate amount of blank whole blood was added into an EP tube containing sodium heparin, then added the working solution of the test substance to a final concentration of 1 μM, and mixed by vortex; • (2) The sample was placed in a water bath at 37° C. with two parallel experiments; for one experiment, the time points were 0 h, 0.5 h, 1 h, 2 h, and 4 h; another experiment was performed to obtain the absolute zero point, which was compared with the 0 h point. • (3) An appropriate amount of sample was taken out from the incubation system, to which 300 μL of internal standard precipitant was added for protein precipitation; (4) all samples were centrifuged at 6° C. for 10 min (15700×g). • (5) 150 μL of the supernatant was taken out, to which 150 μL of water was added, which was mixed by vortex, and analyzed by LC-MS/MS. The stability data of compounds in human whole blood is as follows: […]

Data set [4] in a line: Stability experiment of compounds in human liver microsomes. Type of data set: in vitro ADME. The conditions noted are these: NADPH, 37° C. An outline of the steps: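 Compounds were incubated with human liver microsomes at 37 °C after reaction start with NADPH (2 mM solution in MgCl2), sampled at 0, 5, 15, 30 and 60 min into precipitant with internal standard. Negative controls lacked NADPH. Remaining compound was quantified by LC-MS/MS to derive half-life.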

Regarding `C/C(=C\CC[P@@](=O)(N[C@@H](C)C(=O)O[C@@H]1CCOC1)Oc1ccccc1)CO` [Compound 19, (R)-tetrahydrofuran-3-yl ((S)-((R)-5-hydroxy-4-methylpent-3-en-1-yl)(phenoxy)phosphoryl)-L-alaninate], the EC50 in data set [1] was 0.42 nM; in data set [2] it was 0.47 nM. The “T1/2 in human whole blood” value in data set [3] (1 μM) was above 480 min. For the same compound, in data set [4], the “T1/2 in human liver microsomes” value is given as 47.8 min.
For `C/C(=C\CCP(=O)(N[C@@H](C)C(=O)OC(C)C)Oc1ccccc1)CO` (stereo partly drawn) [Control compound 1, Isopropyl (((E)-5-hydroxy-4-methylpent-3-en-1-yl)(phenoxy)phosphoryl)-L-alaninate, reference compound], the EC50 in data set [1] (Homo sapiens, Huh-7) stood at 1.68 nM; in data set [2] (Homo sapiens, SK-OV-3), 1.14 nM. In data set [3] (whole blood (sodium heparin), read-out: T1/2 in human whole blood (converted)), the half-life at 1 μM was above 480 min. Besides, the half-life in data set [4] (read-out: T1/2 in human liver microsomes) amounted to 8.7 min.
